In ChEMBL document CHEMBL1201861, “Genomics of Drug Sensitity in Cancer screening data, Wellcome Trust Sanger Institute”:

How the values were obtained:
COLO-679 = experiment: cells; type: functional, cell-based; settings: Homo sapiens
Description: SANGER: Inhibition of human COLO-679 cell growth in a cell viability assay.

Huh-7 = experiment: cells; type: functional, cell-based; settings: Homo sapiens;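 also: HuH-7 cell growth inhibition, read out with a cell viability assay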
Description: SANGER: Inhibition of human HuH-7 cell growth in a cell viability assay.

BL-70 = experiment: SANGER: Inhibition of human BL-70 cell growth in a cell viability assay.; type: functional, cell-based; settings: Homo sapiens, BL-70
RL = experiment: cells; type: functional, cell-based, Homo sapiens; settings: Homo sapiens, RL
Description: SANGER: Inhibition of human RL cell growth in a cell viability assay.

EHEB = experiment: cells; type: functional, cell-based; settings: Homo sapiens;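 also: growth inhibition of human EHEB cells, read out with a cell viability assay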
Description: SANGER: Inhibition of human EHEB cell growth in a cell viability assay.

786-0 = experiment: cells; type: functional, cell-based; settings: Homo sapiens
Description: SANGER: Inhibition of human 786-0 cell growth in a cell viability assay.

OAW-28 = experiment: cells; type: functional, cell-based; settings: Homo sapiens;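 also: growth inhibition of OAW-28 cells, read out with a cell viability assay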
Description: SANGER: Inhibition of human OAW-28 cell growth in a cell viability assay.

CaR-1 = experiment: cells; type: functional, cell-based; settings: Homo sapiens;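 also: growth inhibition of human CaR-1 cancer cells, read out with a cell viability assay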
Description: SANGER: Inhibition of human CaR-1 cell growth in a cell viability assay.

KP-N-YN = experiment: cells; type: functional, cell-based; settings: Homo sapiens;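 also: growth inhibition of KP-N-YN cells, read out with a cell viability assay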
Description: SANGER: Inhibition of human KP-N-YN cell growth in a cell viability assay.

HEC-1 = experiment: cells; type: functional, cell-based; settings: Homo sapiens;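 also: growth inhibition of the cell line, read out with a cell viability assay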
Description: SANGER: Inhibition of human HEC-1 cell growth in a cell viability assay.

NCI-H2170 = experiment: cells; type: functional, cell-based; settings: Homo sapiens;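 also: cell viability assay measuring growth inhibition of human NCI-H2170 cancer cells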
Description: SANGER: Inhibition of human NCI-H2170 cell growth in a cell viability assay.

HuP-T4 = experiment: cells; type: functional, cell-based; settings: Homo sapiens;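 also: cell viability assay measuring how much HuP-T4 cell growth is inhibited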
Description: SANGER: Inhibition of human HuP-T4 cell growth in a cell viability assay.

NCI-H1693 = experiment: cells; type: functional, cell-based; settings: Homo sapiens;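 also: growth inhibition of the human cell line, read out with a cell viability assay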
Description: SANGER: Inhibition of human NCI-H1693 cell growth in a cell viability assay.

HCC1806 = experiment: cells; type: functional, cell-based; settings: Homo sapiens;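 also: growth inhibition of the cancer cell line, determined with a cell viability assay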
Description: SANGER: Inhibition of human HCC1806 cell growth in a cell viability assay.

ST486 = experiment: SANGER: Inhibition of human ST486 cell growth in a cell viability assay.; type: functional, cell-based; settings: Homo sapiens, ST486
DMS-79 = experiment: cells; type: functional, cell-based, Homo sapiens; settings: Homo sapiens, DMS-79
Description: SANGER: Inhibition of human DMS-79 cell growth in a cell viability assay.

WSU-NHL = experiment: cells; type: functional, cell-based, Homo sapiens; settings: Homo sapiens, WSU-NHL;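 also: growth inhibition of human WSU-NHL cells, read out with a cell viability assay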
Description: SANGER: Inhibition of human WSU-NHL cell growth in a cell viability assay.

KU-19-19 = experiment: cells; type: functional, cell-based; settings: Homo sapiens
Description: SANGER: Inhibition of human KU-19-19 cell growth in a cell viability assay.

CAL-39 = experiment: cells; type: functional, cell-based; settings: Homo sapiens;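 also: cell viability assay measuring growth inhibition of CAL-39 cells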
Description: SANGER: Inhibition of human CAL-39 cell growth in a cell viability assay.

UACC-893 = experiment: cells; type: functional, cell-based; settings: Homo sapiens
Description: SANGER: Inhibition of human UACC-893 cell growth in a cell viability assay.

SW1710 = experiment: cells; type: functional, cell-based; settings: Homo sapiens;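 also: growth inhibition of SW1710 cells, determined with a cell viability assay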
Description: SANGER: Inhibition of human SW1710 cell growth in a cell viability assay.

U2OS = experiment: cells; type: functional, cell-based, U-2-OS; settings: Homo sapiens;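 also: growth inhibition of human U-2-OS cells, determined with a cell viability assay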
Description: SANGER: Inhibition of human U-2-OS cell growth in a cell viability assay.

KYSE-520 cell line = experiment: cells; type: functional, cell-based; settings: Homo sapiens;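 also: growth inhibition of human KYSE-520 cells, read out with a viability assay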
Description: SANGER: Inhibition of human KYSE-520 cell growth in a cell viability assay.

BOKU = experiment: cells; type: functional, cell-based; settings: Homo sapiens;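 also: growth inhibition of the human BOKU cell line, read out by a cell viability assay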
Description: SANGER: Inhibition of human BOKU cell growth in a cell viability assay.

EB2 = experiment: cells; type: functional, cell-based, Homo sapiens; settings: Homo sapiens, EB2;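 also: growth inhibition of EB2 cells, read out with a cell viability assay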
Description: SANGER: Inhibition of human EB2 cell growth in a cell viability assay.

LU-99A = experiment: cells; type: functional, cell-based; settings: Homo sapiens;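 also: growth inhibition of LU-99A cells, read out with a cell viability assay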
Description: SANGER: Inhibition of human LU-99A cell growth in a cell viability assay.

639-V = experiment: cells; type: functional, cell-based; settings: Homo sapiens;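 also: growth inhibition of 639-V cells, read out with a cell viability assay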
Description: SANGER: Inhibition of human 639-V cell growth in a cell viability assay.

TE-15 = experiment: cells; type: functional, cell-based, Homo sapiens; settings: Homo sapiens, TE-15;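 also: cell viability readout of growth inhibition in TE-15 cells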
Description: SANGER: Inhibition of human TE-15 cell growth in a cell viability assay.

SW626 = experiment: cells; type: functional, cell-based; settings: Homo sapiens;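 also: growth inhibition of SW626 cells, measured with a cell viability assay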
Description: SANGER: Inhibition of human SW626 cell growth in a cell viability assay.

BL-41 = experiment: cells; type: functional, cell-based; settings: Homo sapiens;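 also: growth inhibition of human BL-41 cells, read out with a cell viability assay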
Description: SANGER: Inhibition of human BL-41 cell growth in a cell viability assay.

THP-1 = experiment: cells; type: functional, cell-based, Homo sapiens; settings: Homo sapiens, THP-1;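 also: growth inhibition of THP-1 cells, read out via a cell viability assay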
Description: SANGER: Inhibition of human THP-1 cell growth in a cell viability assay.

NCI-H1417 = experiment: cells; type: functional, cell-based, Homo sapiens; settings: Homo sapiens, NCI-H1417;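 also: human NCI-H1417 cells, growth inhibition determined with a cell viability readout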
Description: SANGER: Inhibition of human NCI-H1417 cell growth in a cell viability assay.

SU-DHL-1 = experiment: SANGER: Inhibition of human SU-DHL-1 cell growth in a cell viability assay.; type: functional, cell-based; settings: Homo sapiens, SU-DHL-1
COLO-792 = experiment: cells; type: functional, cell-based; settings: Homo sapiens
Description: SANGER: Inhibition of human COLO-792 cell growth in a cell viability assay.

A-375 = experiment: cells; type: functional, cell-based; settings: Homo sapiens;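 also: growth inhibition of A375 cells, read out with a cell viability assay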
Description: SANGER: Inhibition of human A375 cell growth in a cell viability assay.

A-431 = experiment: cells; type: functional, cell-based; settings: Homo sapiens;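 also: growth inhibition of A-431 cells, determined with a cell viability read-out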
Description: SANGER: Inhibition of human A431 cell growth in a cell viability assay.

NCI-H1522 = experiment: cells; type: functional, cell-based, Homo sapiens; settings: Homo sapiens, NCI-H1522;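 also: growth inhibition of NCI-H1522 cells, read out with a cell viability assay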
Description: SANGER: Inhibition of human NCI-H1522 cell growth in a cell viability assay.

769-P = experiment: cells; type: functional, cell-based; settings: Homo sapiens
Description: SANGER: Inhibition of human 769-P cell growth in a cell viability assay.

SKG-IIIa = experiment: cells; type: functional, cell-based; settings: Homo sapiens;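 also: cell growth inhibition, read out with a cell viability assay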
Description: SANGER: Inhibition of human SKG-IIIa cell growth in a cell viability assay.

23132-87 = experiment: cells; type: functional, cell-based; settings: Homo sapiens
Description: SANGER: Inhibition of human 23132-87 cell growth in a cell viability assay.

SBC-5 = experiment: cells; type: functional, cell-based; settings: Homo sapiens;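 also: cell viability assay read-out, IC50 is the concentration that inhibits growth of the cells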
Description: SANGER: Inhibition of human SBC-5 cell growth in a cell viability assay.

NCI-H322M = experiment: cells; type: functional, cell-based, Homo sapiens; settings: Homo sapiens, NCI-H322M;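 also: cell viability assay measuring inhibition of growth of human NCI-H322M cells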
Description: SANGER: Inhibition of human NCI-H322M cell growth in a cell viability assay.

SAS = experiment: cells; type: functional, cell-based; settings: Homo sapiens;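 also: growth inhibition of SAS cells, read out with a cell viability assay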
Description: SANGER: Inhibition of human SAS cell growth in a cell viability assay.

YAPC = experiment: cells; type: functional, cell-based; settings: Homo sapiens;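 also: growth inhibition of YAPC cells, measured with a cell viability assay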
Description: SANGER: Inhibition of human YAPC cell growth in a cell viability assay.

MDA-MB-157 = experiment: cells; type: functional, cell-based; settings: Homo sapiens
Description: SANGER: Inhibition of human MDA-MB-157 cell growth in a cell viability assay.

COLO-680N = experiment: cells; type: functional, cell-based; settings: Homo sapiens;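 also: cell viability assay used to measure inhibition of COLO-680N cell growth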
Description: SANGER: Inhibition of human COLO-680N cell growth in a cell viability assay.

HLE = experiment: cells; type: functional, cell-based; settings: Homo sapiens;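 also: growth inhibition of human HLE cells, read out by a cell viability assay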
Description: SANGER: Inhibition of human HLE cell growth in a cell viability assay.

C-33-A = experiment: cells; type: functional, cell-based; settings: Homo sapiens;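 also: cell viability assay measuring growth inhibition of C-33-A cells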
Description: SANGER: Inhibition of human C-33-A cell growth in a cell viability assay.

NCI-H524 = experiment: cells; type: functional, cell-based, Homo sapiens; settings: Homo sapiens, NCI-H524;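 also: growth inhibition of human NCI-H524 cells, read out through a cell viability assay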
Description: SANGER: Inhibition of human NCI-H524 cell growth in a cell viability assay.

LoVo = experiment: cells; type: functional, cell-based; settings: Homo sapiens;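 also: growth inhibition of human LoVo cells, read out with a cell viability assay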
Description: SANGER: Inhibition of human LoVo cell growth in a cell viability assay.

DG-75 = experiment: cells; type: functional, cell-based, Homo sapiens; settings: Homo sapiens, DG-75;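 also: growth inhibition of DG-75 cells, read out with a cell viability assay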
Description: SANGER: Inhibition of human DG-75 cell growth in a cell viability assay.

COR-L23 = experiment: cells; type: functional, cell-based; settings: Homo sapiens;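 also: cell viability assay measuring how strongly compounds suppress growth of COR-L23 cells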
Description: SANGER: Inhibition of human COR-L23 cell growth in a cell viability assay.

MHH-ES-1 = experiment: cells; type: functional, cell-based; settings: Homo sapiens
Description: SANGER: Inhibition of human MHH-ES-1 cell growth in a cell viability assay.

PC-14 = experiment: cells; type: functional, cell-based; settings: Homo sapiens;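 also: cell viability assay measuring inhibition of PC-14 cell growth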
Description: SANGER: Inhibition of human PC-14 cell growth in a cell viability assay.

PFSK-1 = experiment: cells; type: functional, cell-based; settings: Homo sapiens;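 also: cell viability assay measuring how strongly compounds suppress growth of human PFSK-1 cells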
Description: SANGER: Inhibition of human PFSK-1 cell growth in a cell viability assay.

HCC 2998 = experiment: cells; type: functional, cell-based; settings: Homo sapiens;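 also: growth inhibition of human HCC2998 cells, measured with a cell viability read-out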
Description: SANGER: Inhibition of human HCC2998 cell growth in a cell viability assay.

LB373-MEL-D = experiment: cells; type: functional, cell-based, Homo sapiens; settings: Homo sapiens, LB373-MEL-D;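 also: growth inhibition of the cell line, read out in a cell viability assay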
Description: SANGER: Inhibition of human LB373-MEL-D cell growth in a cell viability assay.

U-698-M = experiment: cells; type: functional, cell-based, Homo sapiens; settings: Homo sapiens, U-698-M
Description: SANGER: Inhibition of human U-698-M cell growth in a cell viability assay.

OE33 = experiment: cells; type: functional, cell-based; settings: Homo sapiens;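 also: growth inhibition of human OE33 cells, measured by a cell viability assay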
Description: SANGER: Inhibition of human OE33 cell growth in a cell viability assay.

Capan-2 = experiment: cells; type: functional, cell-based; settings: Homo sapiens;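 also: Capan-2 cell growth inhibition, read out with a viability assay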
Description: SANGER: Inhibition of human Capan-2 cell growth in a cell viability assay.

Q: `OC[C@H](Cc1ccccc1)Nc1nc(Oc2ccc3c(c2)CCC3)nc2c1ncn2Cc1ccc(-c2ccccc2)cc1` was tested. Which IC50 (COLO-679) did it give?
A: 2660 nM

Q: And the IC50 (Huh-7)?
A: > 10.2 µM

Q: What about the IC50 (BL-70) of the same compound?
A: 4.13 µM

Q: And the IC50 (RL)?
A: > 10.2 µM

Q: What about the IC50 (EHEB) of the same compound?
A: > 10.2 µM

Q: What about the IC50 (786-0) of the same compound?
A: 1260 nM

Q: And the IC50 (OAW-28)?
A: > 10.2 µM

Q: What about the IC50 (CaR-1) of the same compound?
A: > 10.2 µM

Q: And the IC50 (KP-N-YN)?
A: > 10.2 µM

Q: And the IC50 (HEC-1)?
A: > 10.2 µM

Q: And the IC50 (NCI-H2170)?
A: > 10.2 µM

Q: What about the IC50 (HuP-T4) of the same compound?
A: 7.07 µM

Q: And the IC50 (NCI-H1693)?
A: 7.05 µM

Q: What about the IC50 (HCC1806) of the same compound?
A: > 10.2 µM

Q: And the IC50 (ST486)?
A: > 10.2 µM

Q: And the IC50 (DMS-79)?
A: > 10.2 µM

Q: What about the IC50 (WSU-NHL) of the same compound?
A: > 10.2 µM

Q: And the IC50 (KU-19-19)?
A: > 10.2 µM

Q: And the IC50 (CAL-39)?
A: > 10.2 µM

Q: And the IC50 (UACC-893)?
A: > 10.2 µM

Q: And the IC50 (SW1710)?
A: 1430 nM

Q: And the IC50 (U2OS)?
A: > 10.2 µM

Q: What about the IC50 (KYSE-520 cell line) of the same compound?
A: > 10.2 µM

Q: And the IC50 (BOKU)?
A: > 10.2 µM

Q: And the IC50 (EB2)?
A: > 10.2 µM

Q: What about the IC50 (LU-99A) of the same compound?
A: > 10.2 µM

Q: And the IC50 (639-V)?
A: 1150 nM

Q: And the IC50 (TE-15)?
A: > 10.2 µM

Q: What about the IC50 (SW626) of the same compound?
A: 8.3 µM

Q: And the IC50 (BL-41)?
A: 3.69 µM

Q: And the IC50 (THP-1)?
A: > 10.2 µM

Q: And the IC50 (NCI-H1417)?
A: > 10.2 µM

Q: And the IC50 (SU-DHL-1)?
A: > 10.2 µM

Q: And the IC50 (COLO-792)?
A: 4.79 µM

Q: What about the IC50 (A-375) of the same compound?
A: 6.87 µM

Q: And the IC50 (A-431)?
A: 3.32 µM

Q: What about the IC50 (NCI-H1522) of the same compound?
A: > 10.2 µM

Q: And the IC50 (769-P)?
A: 3.64 µM

Q: And the IC50 (SKG-IIIa)?
A: > 10.2 µM

Q: What about the IC50 (23132-87) of the same compound?
A: 6.07 µM

Q: What about the IC50 (SBC-5) of the same compound?
A: > 10.2 µM

Q: What about the IC50 (NCI-H322M) of the same compound?
A: > 10.2 µM

Q: What about the IC50 (SAS) of the same compound?
A: 4.8 µM

Q: What about the IC50 (YAPC) of the same compound?
A: > 10.2 µM

Q: And the IC50 (MDA-MB-157)?
A: > 10.2 µM

Q: And the IC50 (COLO-680N)?
A: > 10.2 µM

Q: And the IC50 (HLE)?
A: 5.66 µM

Q: What about the IC50 (C-33-A) of the same compound?
A: > 10.2 µM

Q: And the IC50 (NCI-H524)?
A: > 10.2 µM

Q: And the IC50 (LoVo)?
A: 4.56 µM

Q: What about the IC50 (DG-75) of the same compound?
A: > 10.2 µM

Q: What about the IC50 (COR-L23) of the same compound?
A: 6.89 µM

Q: What about the IC50 (MHH-ES-1) of the same compound?
A: > 10.2 µM

Q: And the IC50 (PC-14)?
A: > 10.2 µM

Q: What about the IC50 (PFSK-1) of the same compound?
A: > 10.2 µM

Q: And the IC50 (HCC 2998)?
A: > 10.2 µM

Q: And the IC50 (LB373-MEL-D)?
A: > 10.2 µM

Q: What about the IC50 (U-698-M) of the same compound?
A: > 10.2 µM

Q: And the IC50 (OE33)?
A: > 10.2 µM

Q: And the IC50 (Capan-2)?
A: > 10.2 µM
